Values quoted from earlier work, collected in patent US20040219231A1, “Production of concentrated biocidal solutions” (priority 2000, published 2004).

How the values were obtained:
[1] = not given; remark: listed apart in the source

SMILES | solubility in water | Vapor Pressure (25° C.) [1]
CC1(C)C(=O)N(Cl)C(=O)N1Br [BCDMH, 1,3-bromochloro-5,5-dimethylhydantoin] | around 0.15% | –
BrBr [Bromine (Br2), Bromine] | – | 214 mm
ClBr [Bromine Chloride (BrCl), Bromine Chloride] | – | 1800 mm
